Structures are written as SMILES.

The source of these data is paper PMC6412891, “Synthesis and Biological Evaluation of Novel Thiazolyl-Coumarin Derivatives as Potent Histone Deacetylase Inhibitors with Antifibrotic Activity” (Molecules, 2019).

In data set [1] the test system is procollagen type I expression in CFs. Kind of data set: Procollagen type I expression levels in cardiac fibroblasts, western blot. Format: cell-based, rat. The following applies: for procollagen type I expression levels: 5 μM for 48 h, absence of TGF-β1, vs. control; for procollagen type I expression levels induced by TGF-β1: derivatives 5 μM (TSA 0.1 μM) for 48 h in presence of TGF-β1. Here is the method:
In CFs collagen type I secretion is a hallmark of cardiac fibrosis development, which is regulated by HDACs. […] For this purpose, a fixed concentration of 5a, 6a, 7a and 8a derivatives in presence/absence of TGF-β1 were studied, and procollagen type I expression levels were measured by using the western blot technique. TSA was used as control and also for comparative purposes. In Figure 5 (A and B), in the upper panel representative photographs of procollagen type I expression level and GAPDH (used as charge control) are shown, whereas in the lower panel the graphic analyses are observed.
For the analysis of the protein expression of histone H4–acetylated (ac–H4) and total H4 histone, a number of 1 × 10^6 of CFs seeded in 60 mm plates was used, which were incubated with the inhibitory compounds at a concentration of 10 μM, in the absence/presence of TGF–β1(5ng/mL) for 4 h. Subsequently, total histones were extracted by the technique of saline precipitation (high salt extraction). Briefly, CFs were scraped from the plates with 1 mL of cold PBS transferring their contents to Eppendorf tubes to be centrifuged for 60 s at 1500 rpm at 4 °C and re–suspended in 400 μL of cold buffer A (10 mM 4-(2-hydroxyethyl)-1-piperazineethanesulfonic acid-KOH (HEPES-KOH) adjusted to pH 7.9, 1.5 mM MgCl2, 10 mM KCl, 0.5 mM dithiothreitol and 0.2 mM phenylmethylsulfonyl fluoride (PMSF). The suspension is left on ice for 10 min and then placed in the vortex for 10 s. The samples were centrifuged for 60 s, subsequently discarding the supernatant fraction. The obtained pellet was re-suspended in 60 μL of cold C buffer (20 mM HEPES-KOH adjusted to pH 7.9, 25% glycerol, 420 mM NaCl, 1.5 mM MgCl2, 0.2 mM EDTA, dithiothreitol 0.5 mM and 0.2 mM PMSF) and placed on ice for 20 min for saline precipitation. Cell debris is removed by centrifugation for 120 s at 1500 rpm at 4 °C and the supernatant fraction, which contains the DNA binding proteins, is stored at minus 20 °C. For the analysis of α–SMA and procollagen type I expression levels, 3×10^5 CFs seeded in 35 mm plates were used, which were incubated together with inhibitor compounds at a 5 μM, in the absence/presence of TGF–β1 (5 ng/mL) for 48 h. To obtain the total proteins, the CFs were washed three times with cold PBS, then scraped and lysed with 50 μL of radio inmuno-precipitation assay (RIPA) lysis buffer (10 mM Tris–HCl pH 7.2, 5 mM EDTA, 150 mM NaCl, Triton X–100 1%, sodium dodecyl sulfate (SDS) 0.1%, deoxycholate 1%, leupeptin 2 μg/mL, aprotinin 10mM, PMSF 1mM and Na3VO4 100μM). The solution was centrifuged for 15 min at 10,000 rpm and at 4 °C. The supernatant fraction containing the total proteins was stored at minus 20 °C. The concentration of proteins obtained was determined by spectrophotometry at 570 nm, using the Bradford method (Bio-Rad, Hercules, CA, USA).
CFs proteins (25 μg), were subjected to 10% sodium dodecyl sulfate-polyacrylamide gel electrophoresis and finally transferred onto a nitrocellulose membrane (Millipore, Billerica, MA, USA). The membrane was washed twice with tris–buffered saline solution containing 0.1% Tween 20 (TBST). After being blocked with TBST containing 5% nonfat milk for 40 min, the membrane was incubated with primary antibodies in TBST/1% nonfat milk at 4 °C overnight. The membrane was washed three times with TBST for a total of 15 min and then incubated with primary antibodies (ac–H4, H4 total, α-SMA, procollagen type I and GAPDH). Then the membrane was incubated with goat anti–rabbit or anti-mouse IgG antibodies conjugated with horseradish (diluted 1:1000) for 1 h at room temperature. Signals were developed with ECL reagents and exposure to photographic film.
Figure 5 CTz non–substituted inhibit procollagen type I expression levels in cardiac fibroblasts. […] (B) CFs were exposed to 5a, 6a, 7a and 8a at 5 μM for 48 h in presence of TGF–β1. Procollagen type I expression levels were measured by western blot. GAPDH was used as control load.
On the technique in general: Immunoblotting shows a protein as a band on a membrane.

Data set [2] has as its system neonatal rat cardiac fibroblasts (CFs). The data set can be described thus: FBS-induced cardiac fibroblast proliferation assay (Alamar Blue). Format: cell-based. The following applies: 10% FBS-induced CF proliferation, 48 h, read-out: Inhibition percentage of cell proliferation. How it is done:
CFs were treated for 48 h with 10% fetal bovine serum (FBS), to induce CFs proliferation in presence/absence of each new CTz derivatives in a concentration range of 1–10 μM. In Table 4, the inhibition percentage of cell proliferation for each concentration of the synthesized compounds are shown. All derivatives inhibited CFs proliferation induce by serum.
Sprague Dawley rats were obtained from the Animal Breeding Facility of the School of Chemical and Pharmaceutical Sciences at the University of Chile. All studies followed the Guide for the Care and Use of Laboratory Animals published by the US National Institutes of Health (NIH Publication 8th, 2011), and experimental protocols were approved by the University of Chile Institutional Ethics Review Committee. CF were isolated from of 2 or 3–day–old Sprague-Dawley rats and cultured as described previously. Briefly, the neonatal rats were decapitated and their hearts were extracted under aseptic environment. Atria were removed and ventricles were cut into small pieces (~1–2 mm) for posterior colagenase II digestion. The digestion yield was separated by 10 min centrifugation at 89×g. The pellet was resuspended in 10 mL of Dulbecco’s Modified Eagle’s Medium/Nutrient F-12 (DMEM-F12) supplemented with 10% FBS and antibiotics (100 μg/mL streptomycin and 100 units/mL penicillin) and cultured in a humid atmosphere of 5% CO2 and 95% O2 at 37°C until confluence (5 days). The purity of the CFs population was assessed through the expression of several markers. CFs had positive staining against vimentin (Santa Cruz Biotechnology), while being negative against sarcomeric actin and desmin (Sigma-Aldrich). Experiments were performed on cells at passage 1. […]
To evaluate cytotoxicity, CFs were seeded in 12 microwell plates at a ratio of 2 × 10^4 cell/cm^2, cultured in DMEM–F12 medium + 10% FBS, which was subsequently replaced by DMEM–F12. After 24 h of serum starvation derivatives were applied at proper times and concentrations in accordance to experimental procedures. Cell viability assays were carried out using Alamar Blue®, a nontoxic, cell permeable non fluorescent compound that is blue in color. Viable cells reduce resazurin to resorufin, which produces very bright red fluorescence which is used as a quantitative cell viability measure. […] The fluorescence of Alamar Blue® was read using microplate reader at 570 excitation and emission to 595 nm. Cell survival was expressed as percentage over the untreated cells. […] Cell proliferation was quantified by Alamar Blue®, according to protocol mentioned before. Cell proliferation was expressed as percentage over the control FBS treated cells.
In general terms: The colour change of resazurin is a common sign of viable cells or microbes.

Data set [3] relates to HDACs HeLa cells nuclear extract. The data set can be described thus: HDAC inhibitory activity, fluorometric kit, HeLa cell nuclear extract. The following applies: HeLa cell nuclear extract as HDAC source. The class given is biochemical, human.

As for `O=C(CCCCC1CCSS1)Nc1nc(-c2cc3ccccc3oc2=O)cs1` (stereo not shown) [Compound 5a, 5-[1,2]-Dithiolan-3-yl-N-[4-(2-oxo-2H-chromen-3-yl)-thiazol-2-yl]-pentanamide], the melting point – broadly, the temperature of the solid-liquid transition – is 91 to 92 °C. In data set [1], the “procollagen type I expression levels” value is reported as “decreased in a statistically significant manner” and the “procollagen type I expression levels induced by TGF-β1” value is given as “decreased, close to control levels”. Also, in data set [2], the inhibition at 1 µM was found to be 57.3 ± 6.7%, the inhibition at 5 µM is 70.7 ± 7.1% and the inhibition at 10 µM worked out at 92.8 ± 6.4%. Moreover, inhibition in data set [3] was half-maximal at 66.7 ± 2.9 nM (IC50).
Take `O=C(Nc1nc(-c2cc3ccccc3oc2=O)cs1)c1ccc(O)c(O)c1` [Compound 6a]: in data set [1], the “procollagen type I expression levels” value is recorded as “decreased in a statistically significant manner” and the “procollagen type I expression levels induced by TGF-β1” value is reported as “decreased, close to control levels”. Besides, in data set [2], the inhibition at 1 µM amounted to 3 ± 3.9%, the inhibition at 5 µM was found to be 35 ± 1.9% and the inhibition at 10 µM turned out to be 60.6 ± 1.9%. Moreover, the IC50 (as a rule, the point on the concentration scale where inhibition reaches its midpoint) in data set [3] was 574 ± 24.4 nM.
With `O=C(O)CCCCC(=O)Nc1nc(-c2cc3ccccc3oc2=O)cs1` [Compound 7a], in data set [1], the “procollagen type I expression levels” value is on record as “had no effect”. Further, in data set [2], the inhibition at 1 µM worked out at 0.5 ± 0.1%, the inhibition at 5 µM is 26.8 ± 5.9% and the inhibition at 10 µM turned out to be 45 ± 5.1%. Moreover, in data set [3], inhibition was half-maximal at 6100 ± 390 nM (IC50).
Regarding `O=C(CCCCC(=O)Nc1nc(-c2cc3ccccc3oc2=O)cs1)NO` [Compound 8a, 5-[4-(2-Oxo-2H-chromen-3-yl)-thiazol-2-yl-carbamoyl]-N-hydroxypentanamide], the melting point is 150 to 152 °C (dec.). Besides, in data set [1], the “procollagen type I expression levels” value is on record as “decreased in a statistically significant manner” and the “procollagen type I expression levels induced by TGF-β1” value is “decreased, close to control levels”. Also, in data set [2], the inhibition at 1 µM is 59.4 ± 6.1%, the inhibition at 5 µM was 79.9 ± 9.7% and the inhibition at 10 µM is 94.4 ± 3.8%. Moreover, in data set [3], it took 66.9 ± 1.8 nM to reach half-maximal inhibition (IC50).
